Data on one compound can be found in ChEMBL document CHEMBL1255319, “Predictive values of the human immunodeficiency virus phenotype and genotype and of amprenavir and lopinavir inhibitory quotients in heavily pretreated patients on a ritonavir-boosted dual-protease-inhibitor regimen” (Antimicrob Agents Chemother, 2008).

Data set [1] concerns Human immunodeficiency virus 1. The experiment in a line: Antiviral activity against HIV1 infected in human. Type of data set: functional.
A short description of data set [2]: Inhibitory quotient, ratio of Cmin to IC90 for HIV1 infected in patient in presence of human serum at 600 mg, BID.
Data set [3] is filed under the species Homo sapiens. Put plainly: fCmin in HIV1-infected patient at 600 mg, BID measured on week 2 by HPLC. As to conditions: in vivo.
The nature of data set [4]: Inhibitory quotient, ratio of fCmin to IC90 for HIV1 infected in patient at 600 mg, BID.
Data set [5] concerns Human immunodeficiency virus. Put plainly: Antiviral activity in HIV infected in patient having Cmin-corrected GIQ value < 75 assessed as viral copies. Type of data set: functional.
Data set [6] deals with Human immunodeficiency virus. The experiment in a line: Antiviral activity in HIV infected in patient having Cmin-corrected GIQ value > 75 assessed as viral copies. Type of data set: functional.
Data set [7] deals with Human immunodeficiency virus 1. Put plainly: Antiviral activity against HIV1 infected in human in presence of human serum. Type of data set: functional.

Each structure is given as a SMILES string. Values after ≈ are worked out from the molar mass of the structure shown.

As usually defined, the IC90 is the point of the concentration-response curve where the effect stands at 90%. As for `CC(C)CN(C[C@@H](O)[C@H](Cc1ccccc1)NC(=O)O[C@H]1CCOC1)S(=O)(=O)c1ccc(N)cc1` [AMPRENAVIR], the results for the IC90 in data set [1] and in data set [7] were 0.0578 µg/mL (≈ 0.114 µM) and 0.453 µg/mL, respectively. Further, the Ratio in data set [2] turned out to be 3.6; in data set [4], 2.5. In data set [3], this compound showed a fCmin of 177 ng/mL. The log10cfu was 0.19 log10 copies/ml in data set [5] and 1.23 log10 copies/ml in data set [6].
